Test results reported in paper PMC2907420 (Journal of pharmaceutical and biomedical analysis, 2010).

What was measured:
[1] = target: T1, glycated HSA (gHSA1) (Homo sapiens, UniProt P02768); conditions: gHSA1 column
[2] = target: T2, glycated HSA (gHSA2) (Homo sapiens, UniProt P02768); conditions: gHSA2 column
[3] = target: T3, glycated HSA (gHSA3) (Homo sapiens, UniProt P02768); conditions: gHSA3 column
[4] = target: T4, glycated HSA (Homo sapiens, UniProt P02768); conditions: pH 7.4, 37°C; versus reported Ka of 1.1 × 10^4 M^−1 for normal HSA
[5] = test system: normal HSA; conditions: normal HSA columns, 37°C; cited from earlier work
[6] = depending on storage conditions; cited from earlier work
[7] = target: T4, glycated HSA; conditions: 4°C, comparable glycation conditions; cited from earlier work
[8] = target: T1, glycated HSA (gHSA1); test: biochemical
[9] = target: T2, glycated HSA (gHSA2); test: biochemical
[10] = target: T3, glycated HSA (gHSA3); test: biochemical
[11] = binding capacity normalized for protein content
[12] = moles of active binding sites, Eqn. 3

T3 sequence (P02768 25-609): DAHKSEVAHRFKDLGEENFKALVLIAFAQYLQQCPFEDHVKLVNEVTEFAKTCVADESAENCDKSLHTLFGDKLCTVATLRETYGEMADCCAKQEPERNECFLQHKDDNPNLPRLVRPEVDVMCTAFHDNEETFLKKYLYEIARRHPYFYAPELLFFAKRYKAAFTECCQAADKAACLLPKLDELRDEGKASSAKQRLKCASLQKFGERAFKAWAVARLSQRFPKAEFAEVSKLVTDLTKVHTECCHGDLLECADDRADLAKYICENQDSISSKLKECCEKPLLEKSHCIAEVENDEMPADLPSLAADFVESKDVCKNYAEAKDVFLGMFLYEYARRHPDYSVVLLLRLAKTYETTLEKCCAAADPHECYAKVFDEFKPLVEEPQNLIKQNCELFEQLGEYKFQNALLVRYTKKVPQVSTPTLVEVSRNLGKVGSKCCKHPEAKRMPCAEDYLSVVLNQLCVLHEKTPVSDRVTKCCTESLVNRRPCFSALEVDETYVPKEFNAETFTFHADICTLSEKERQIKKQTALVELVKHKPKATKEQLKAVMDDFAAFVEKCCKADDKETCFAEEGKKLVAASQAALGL
T1 sequence (P02768 25-609): as above
T2 sequence (P02768 25-609): as above
T4 sequence (P02768 25-609): as above

For `N[C@@H](Cc1c[nH]c2ccccc12)C(=O)O` [L-Tryptophan, L-tryptophan], the “Specific Activity” value [1, 11] was 0.36 (± 0.08) mol/mol HSA, the mL [1, 12] was 5.0 (± 0.9) × 10^−9 mol and the “Specific Activity” value [2, 11] was 0.30 (± 0.05) mol/mol HSA. The mL [2, 12] was 6.7 (± 1.8) × 10^−9 mol, the “Specific Activity” value [3, 11] was 0.31 (± 0.04) mol/mol HSA and the mL [3, 12] was 5.8 (± 0.6) × 10^−9 mol. For the same compound, the “increase in binding affinity (Ka) with glycated HSA versus normal HSA” value [4] was 4.7–5.8 fold, the association equilibrium constant [5] was 11000 M⁻¹ and the “time over which solutions decrease in stability” value [6] was 2 to 9 days. The “decrease in affinity, glycated HSA versus HSA” value [7] was ≤ 0.6 fold, the Kd [8] was 19.2 µM and the Kd [9] was 15.6 µM. It also gave a Kd [10] of 17.5 µM.
